Assay results: patent publication US11406642B2, “DNP and DNP prodrug treatment of neuromuscular, neurodegenerative, autoimmune, developmental, traumatic brain injury, concussion, dry eye disease, hearing loss and/or metabolic diseases” (priority 2016, dated 2022)

Legend:
[1] = Stability in human plasma; format: in vitro ADME; conditions: 80% human plasma, 37° C.
Experimental: Plasma: Stability in rat and human plasma (37° C.)
(§1) HPLC analysis was carried out on an Agilent 1200 Infinity Series Quatpump, equipped with a photodiode array detector and a computer integrating apparatus. An Inertsil ODS-3 column, C18, 5 μm, 4.6×50 mm (GL Science Inc. Japan) protected with a guard column: Alltima C18, 5 μm, 4.6×7.5 mm (Grace Discovery Sciences, IL, USA) was used as the stationary phase. An isocratic method with a mobile phase consisting of water/acetonitrile (70:30) containing 0.05% formic acid in each was used. A flow rate of 0.9 mL/min was used and detection was carried out at a UV wavelength of 250 nm.
Formulation of II-38 in human plasma: to prepare 1 mg/mL of II-38, 2.3 mg of II-38 was formulated in DMSO (5%) and added slowly and gradually to a total volume of 2.185 mL of premixed human plasma (80%+PBS 15%, see Table 6) in a Franz cell diffusion chamber preheated to 37° C. The solution was mixed for a min every half an hour using magnetic stirrer. Samples of 20 μL (20 μg/mL of II-38) were collected at 0, 0.5, 1, 2, 4, 6 and 8 h. Each sample was mixed with acetonitrile QS to 1 mL, vortex-mixed for 30 sec and centrifuged at 10,000 rpm at room temp. A volume of 10 μL of the supernatant was injected into the HPLC spectrometer.

[2] = Stability in simulated intestinal fluid (SIF), pH 6.8; format: in vitro ADME; conditions: pH 6.8, 37° C.
Experimental: GI: Stability in simulated intestinal fluid (USP, 37° C.)
as §1
Formulation of II-38 in SIF buffer, pH 6.8: to formulate 1 mg/mL of II-38 in SIF, 2.6 mg of II-38 was dissolved in 0.13 mL of DMSO (i.e. 5%) and titrated slowly and gradually to a total volume of 2.47 mL of preheated SIF (Table 4) in a cell diffusion chamber preheated to 37° C. The solution was mixed for 30 sec every half an hour using magnetic stirrer. Samples of 20 μL (20 μg/mL of II-38) were collected at 0, 0.5, 1, 2, 4, 6 and 8 h (FIGS. 12A and 12B). Each sample was mixed with acetonitrile QS to 1 mL, vortex-mixed for 30 sec and centrifuged at 10,000 rpm at room temp. A volume of 10 μL of the supernatant was injected into the HPLC spectrometer (FIG. 11).

In the case of `O=C(Oc1ccc([N+](=O)[O-])cc1[N+](=O)[O-])N1CCOCC1` [II-38, 2,4-Dinitrophenyl morpholine-4-carboxylate], the “hydrolysis in human plasma” value [1] is reported as “cleaved in the plasma to produce 2,4-DNP at a slow rate” and the “stability in SIF” value [2] is reported as “stable”.
